Reference: US20090123391A1, “Novel Formulations” (3M INNOVATIVE PROPERTIES COMPANY, priority 2006, published 2009)
Each block holds one compound with its values, some of them ahead of it.

Assays:
[1] = Dose Through Unit (DTU) dose uniformity of MDI; type: physicochemical; conditions: for overall mean dose delivered through the actuator, combining beginning and end of use: Example 4: Compound A in combination with Compound D, HFA-134a MDI 100/100 μg/act, target output compound D 90 μg, compound A 90 μg; for overall mean dose of medicament delivered through the actuator, combining beginning and end of use doses: MDI, Compound A 22.5 μg; for overall mean dose of medicament delivered through the actuator, combining beginning and end of use doses / overall mean dose delivered through the actuator, combined beginning and end of use: HFA 134a; for overall mean dose delivered through the actuator, combined beginning and end of use: Example 5: Compound E in combination with Compound A, MDI 100/50 μg/act, target output Compound E 90 μg, Compound A 45 μg
Method: The dose collection apparatus (500 ml separatory funnel with a cotton plug) was assembled and the flow rate was set to 20 L/min. Test units were stored at ambient conditions for two weeks after manufacture prior to DTU testing. For the testing at the beginning of the unit, the MDIs were primed two times with a priming actuator and four times to waste with the test actuator, shaking the units between each actuation. Two test actuations were collected in the dose collection apparatus, shaking the unit between actuations. The collection apparatus was rinsed with an appropriate volume of diluent, and the rinsate with the collected dose was analyzed by conventional HPLC analysis. For end of unit testing, the MDIs were actuated an additional 48 times to waste, shaking between each actuation. The MDIs were then actuated four times to waste through a new test actuator. Two test actuations were then collected in the dose collection apparatus, shaking the unit between actuations. The collection apparatus was rinsed with an appropriate volume of diluent, and the rinsate with the collected dose was analyzed by conventional HPLC analysis.
The reported results are the average of ten units at both the beginning and end of unit use.

[2] = Andersen Cascade Impactor (ACI) fine particle fraction of MDI; type: physicochemical; conditions: for Fine Particle Fraction (FPF) expressed as a percentage of the total dose target, for Compound D, 100 μg, and for Compound A, 100 μg: Example 4: Compound A in combination with Compound D, HFA-134a MDI 100/100 μg/act; for Fine Particle Fraction (FPF) expressed as a percentage of the total dose target, for Compound C, 12.5 μg and for Compound A, 25 μg: Example 3: Compound A in combination with Compound C, 25/12.5 μg/act; for Fine Particle Fraction (FPF) expressed as a percentage of the total dose target, for Compound C, 12.5 μg and for Compound A, 25 μg / Fine Particle Fraction expressed as a percentage of the total dose target, for Compound B, 10 μg and for the Compound A, 25 μg: MDI; for Fine Particle Fraction (FPF) expressed as a percentage of the total dose target, for Compound C, 12.5 μg and for Compound A, 25 μg / Fine Particle Fraction expressed as a percentage of the total dose target, for Compound B, 10 μg and for the Compound A, 25 μg / Fine Particle Fraction (FPF) expressed as percentage of the total dose target of Compound E, 100 μg and for Compound A, 50 μg: HFA 134a; for Fine Particle Fraction expressed as a percentage of the total dose target, for Compound B, 10 μg and for the Compound A, 25 μg: Example 2: Compound A in combination with Compound B; for Fine Particle Fraction (FPF) expressed as percentage of the total dose target of Compound E, 100 μg and for Compound A, 50 μg: Example 5: Compound E in combination with Compound A, MDI 100/50 μg/act
Text: The fine particle fraction of the aerosol formulations according to the invention may be measured by conventional techniques, for example, by cascade impaction by measuring particle size distribution. The Cascade Impactor is designed to mimic the human buccal cavity and bronchial tract and the cascade Impactor test is designed to reveal the amount of deposition of inhaled drug substance at various stages thereof. As used herein reference to the “cascade impaction” assay means determination of the deposition of the emitted dose in pressurised inhalations as defined in European Pharmacopoeia, Section 2.9.18, 5th edition “Preparations for Inhalation, Apparatus D”. Such techniques enable the “respirable fraction” of the aerosol formulations to be calculated. One method used to calculate the “respirable fraction” is by reference to “fine particle fraction” which is the amount of active ingredient collected in stages 3 to 5 (aerodynamic diameter 1.1-4.7 μm) which represents the lung, per actuation expressed as a percentage of the total amount of active ingredient delivered per actuation using the cascade impactor method described above. Earlier stages represent the aerosol device itself, the throat and the upper reaches of the bronchial tract, and the later stages representing potential systemic absorption through the wall of the lung which may cause serious side effects.
The Andersen Cascade Impactor Mark II (ACI) was assembled and the flow rate was set to 28.3 L/min. The units were primed four times with the test actuator prior to dose collection, shaking between actuations. Between 5 and 20 actuations were collected in the ACI assembly. The ACI was disassembled and the components were rinsed with an appropriate amount of solvent that ensures dissolution of all formulation ingredients. The rinsate was collected for analysis by conventional HPLC analysis.

[3] = 0.1% w/w of polymer of formula (II), 12 Week at 40° C./75% relative humidity
[4] = 0.1% w/w of polymer of formula (II), Initial

overall mean dose delivered through the actuator, combining beginning and end of use [1, 3]: 104%
overall mean dose delivered through the actuator, combining beginning and end of use [1, 4]: 101%
Fine Particle Fraction (FPF) expressed as a percentage of the total dose target, for Compound D, 100 μg, and for Compound A, 100 μg [2, 3]: 27%
Fine Particle Fraction (FPF) expressed as a percentage of the total dose target, for Compound D, 100 μg, and for Compound A, 100 μg [2, 4]: 32%
Structure (SMILES): OCc1cc([C@@H](O)CNCCCCCCOCCOCc2c(Cl)cccc2Cl)ccc1O [Compound D, 4-{(1R)-2-[(6-{2-[(2,6-dichlorobenzyl)oxy]ethoxy}hexyl)amino]-1-hydroxyethyl}-2-(hydroxymethyl) phenol]

overall mean dose of medicament delivered through the actuator, combining beginning and end of use doses ([1]; Example 3: Compound A in combination with Compound C, 25/12.5 μg/act, 0.1% w/w polymer of formula (II), 12 Week at 40° C./75 relative humidity, target output Compound C 11.3 μg): 112%
overall mean dose of medicament delivered through the actuator, combining beginning and end of use doses ([1]; Example 3: Compound A in combination with Compound C, 25/12.5 μg/act, 0.1% w/w polymer of formula (II), Initial, target output Compound C 11.3 μg): 96%
overall mean dose of medicament delivered through the actuator, combining beginning and end of use doses ([1]; Example 3: Compound A in combination with Compound C, 25/12.5 μg/act, surfactant-free, 12 Week at 40° C./75 relative humidity, target output Compound C 11.3 μg): 90%
overall mean dose of medicament delivered through the actuator, combining beginning and end of use doses ([1]; Example 3: Compound A in combination with Compound C, 25/12.5 μg/act, surfactant-free, Initial, target output Compound C 11.3 μg): 80%
Fine Particle Fraction (FPF) expressed as a percentage of the total dose target, for Compound C, 12.5 μg and for Compound A, 25 μg ([2]; 0.1% w/w polymer of formula (II), 12 Week 40° C./75 relative humidity): 25%
Fine Particle Fraction (FPF) expressed as a percentage of the total dose target, for Compound C, 12.5 μg and for Compound A, 25 μg ([2]; 0.1% w/w polymer of formula (II), Initial): 28%
Fine Particle Fraction (FPF) expressed as a percentage of the total dose target, for Compound C, 12.5 μg and for Compound A, 25 μg ([2]; surfactant-free, 12 Week 40° C./75 relative humidity): 21%
Fine Particle Fraction (FPF) expressed as a percentage of the total dose target, for Compound C, 12.5 μg and for Compound A, 25 μg ([2]; surfactant-free, Initial): 14%
Structure (SMILES): NS(=O)(=O)c1cccc(CCCCOCCCCCCNC[C@H](O)c2ccc(O)c(CO)c2)c1 [Compound C, 3-(4-{[6-({(2R)-2-hydroxy-2-[4-hydroxy-3-(hydroxymethyl)-phenyl]ethyl}amino)hexyl]oxy}butyl)benzenesulfonamide]

overall mean dose of medicament delivered through the actuator, combining beginning and end of use doses ([1]; Example 2: Compound A in combination with Compound B, 25/10 μg/act, 0.1% w/w of polymer of formula (II), 12 Week at 40° C./75% relative humidity, target output Compound B 8.5 μg): 99%
overall mean dose of medicament delivered through the actuator, combining beginning and end of use doses ([1]; Example 2: Compound A in combination with Compound B, 25/10 μg/act, 0.1% w/w of polymer of formula (II), Initial, target output Compound B 8.5 μg): 98%
overall mean dose of medicament delivered through the actuator, combining beginning and end of use doses ([1]; Example 2: Compound A in combination with Compound B, 25/10 μg/act, surfactant-free, 12 Week at 40° C./75% relative humidity, target output Compound B 8.5 μg): 73%
overall mean dose of medicament delivered through the actuator, combining beginning and end of use doses ([1]; Example 2: Compound A in combination with Compound B, 25/10 μg/act, surfactant-free, Initial, target output Compound B 8.5 μg): 71%
Fine Particle Fraction expressed as a percentage of the total dose target, for Compound B, 10 μg and for the Compound A, 25 μg [2, 3]: 26%
Fine Particle Fraction expressed as a percentage of the total dose target, for Compound B, 10 μg and for the Compound A, 25 μg [2, 4]: 25%
Fine Particle Fraction expressed as a percentage of the total dose target, for Compound B, 10 μg and for the Compound A, 25 μg ([2]; surfactant-free, 12 Week at 40° C./75% relative humidity): 21%
Fine Particle Fraction expressed as a percentage of the total dose target, for Compound B, 10 μg and for the Compound A, 25 μg ([2]; surfactant-free, Initial): 20%
Structure (SMILES): O=CNc1cc([C@@H](O)CNCCc2ccc(NC[C@H](O)c3ccccc3)cc2)ccc1O [Compound B]

overall mean dose delivered through the actuator, combined beginning and end of use [1, 3]: 106%
overall mean dose delivered through the actuator, combined beginning and end of use [1, 4]: 104%
Fine Particle Fraction (FPF) expressed as percentage of the total dose target of Compound E, 100 μg and for Compound A, 50 μg [2, 3]: 28%
Fine Particle Fraction (FPF) expressed as percentage of the total dose target of Compound E, 100 μg and for Compound A, 50 μg [2, 4]: 26%
Structure (SMILES): COc1ccc(Nc2ccc(CCNCC(O)c3ccc(O)c4[nH]c(=O)ccc34)cc2)cc1-c1ccccc1 (stereo not drawn) [Compound E, N-{2-[4-(3-phenyl-4-methoxyphenyl)aminophenyl]ethyl}-2-hydroxy-2-(8-hydroxy-2(1H)-quinolinon-5-yl)ethylamine]
